Measured values as given in PubChem BioAssay (NCI).
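Test compounds were applied to cells in 96-well plates for 48 hours at 5 doses. TGI: total growth inhibition.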

Key:
Test in all cases: NCI-60 cell line screen, 48 h
TK-10 renal = system: TK-10 renal
OVCAR-3 ovarian = system: OVCAR-3 ovarian
OVCAR-8 ovarian = system: OVCAR-8 ovarian
HCT-116 colon = system: HCT-116 colon
K-562 leukemia = system: K-562 leukemia
HT29 colon = system: HT29 colon
HOP-62 NSCLC = system: HOP-62 NSCLC
UACC-62 melanoma = system: UACC-62 melanoma
IGROV1 ovarian = system: IGROV1 ovarian
UACC-257 melanoma = system: UACC-257 melanoma
SN12C renal = system: SN12C renal
RXF 393 renal = system: RXF 393 renal
786-0 renal = system: 786-0 renal
SF-539 CNS = system: SF-539 CNS
HCT-15 colon = system: HCT-15 colon
SW-620 colon = system: SW-620 colon
SNB-75 CNS = system: SNB-75 CNS
LXFL 529 NSCLC = system: LXFL 529 NSCLC
SK-MEL-28 melanoma = system: SK-MEL-28 melanoma
U251 CNS = system: U251 CNS
NCI-H23 lung = system: NCI-H23 lung
XF 498 CNS = system: XF 498 CNS
SK-OV-3 ovarian = system: SK-OV-3 ovarian
HCC-2998 colon = system: HCC-2998 colon
ACHN renal = system: ACHN renal
SR leukemia = system: SR leukemia
HL-60(TB) leukemia = system: HL-60(TB) leukemia
MALME-3M melanoma = system: MALME-3M melanoma
SNB-19 CNS = system: SNB-19 CNS
A549 NSCLC = system: A549 NSCLC
MOLT-4 leukemia = system: MOLT-4 leukemia
RPMI-8226 leukemia = system: RPMI-8226 leukemia
RXF-631 renal = system: RXF-631 renal
NCI-H226 lung = system: NCI-H226 lung
OVCAR-4 ovarian = system: OVCAR-4 ovarian
SF-295 CNS = system: SF-295 CNS
M19-MEL melanoma = system: M19-MEL melanoma
HOP-18 NSCLC = system: HOP-18 NSCLC
KM12 colon = system: KM12 colon
SF-268 CNS = system: SF-268 CNS
DMS 114 small cell lung = system: DMS 114 small cell lung
CAKI-1 renal = system: CAKI-1 renal
UO-31 renal = system: UO-31 renal
KM20L2 colon = system: KM20L2 colon
DLD-1 colon = system: DLD-1 colon
COLO 205 colon = system: COLO 205 colon
NCI-H460 lung = system: NCI-H460 lung
SK-MEL-5 melanoma = system: SK-MEL-5 melanoma
M14 melanoma = system: M14 melanoma
EKVX NSCLC = system: EKVX NSCLC
NCI-H522 lung = system: NCI-H522 lung
OVCAR-5 ovarian = system: OVCAR-5 ovarian
LOX IMVI melanoma = system: LOX IMVI melanoma
CCRF-CEM leukemia = system: CCRF-CEM leukemia
A498 renal = system: A498 renal
SK-MEL-2 melanoma = system: SK-MEL-2 melanoma
SNB-78 CNS = system: SNB-78 CNS
HOP-92 NSCLC = system: HOP-92 NSCLC
DMS 273 small cell lung = system: DMS 273 small cell lung

Measured: TGI

Cc1ccc(C(=O)CC2=Nc3nnc(CCCCCCCc4nnc5n4C(=O)C(CC(=O)c4ccc(C)cc4)=N5)n3C2=O)cc1
> 100 µM: TK-10 renal | OVCAR-3 ovarian | OVCAR-8 ovarian | HCT-116 colon | K-562 leukemia | HT29 colon | HOP-62 NSCLC | UACC-62 melanoma | IGROV1 ovarian | UACC-257 melanoma | SN12C renal | RXF 393 renal | 786-0 renal | SF-539 CNS | HCT-15 colon | SW-620 colon | LXFL 529 NSCLC | SK-MEL-28 melanoma | U251 CNS | NCI-H23 lung | XF 498 CNS | SK-OV-3 ovarian | HCC-2998 colon | ACHN renal | SR leukemia | HL-60(TB) leukemia | MALME-3M melanoma | SNB-19 CNS | A549 NSCLC | MOLT-4 leukemia | RPMI-8226 leukemia | RXF-631 renal | NCI-H226 lung | OVCAR-4 ovarian | SF-295 CNS | M19-MEL melanoma | HOP-18 NSCLC | KM12 colon | SF-268 CNS | DMS 114 small cell lung | CAKI-1 renal | UO-31 renal | KM20L2 colon | DLD-1 colon | COLO 205 colon | NCI-H460 lung | SK-MEL-5 melanoma | M14 melanoma | EKVX NSCLC | NCI-H522 lung | OVCAR-5 ovarian | LOX IMVI melanoma | CCRF-CEM leukemia
86.9 µM: SNB-75 CNS

COc1ccc2c(c1)OC[C@@H]1c3cc(O)c(OCc4ccccc4)cc3O[C@H]21
75.9 µM: UO-31 renal
97.1 µM: A549 NSCLC
51.4 µM: UACC-257 melanoma
96.4 µM: TK-10 renal
> 100 µM: OVCAR-3 ovarian | OVCAR-8 ovarian | HCT-116 colon | K-562 leukemia | HT29 colon | HOP-62 NSCLC | UACC-62 melanoma | IGROV1 ovarian | A498 renal | 786-0 renal | SF-539 CNS | HCT-15 colon | SK-MEL-28 melanoma | SK-OV-3 ovarian | HCC-2998 colon | ACHN renal | SNB-19 CNS | MOLT-4 leukemia | RXF-631 renal | SF-295 CNS | HOP-18 NSCLC | KM12 colon | SF-268 CNS | DLD-1 colon | OVCAR-5 ovarian | DMS 273 small cell lung | LOX IMVI melanoma | CCRF-CEM leukemia
82.6 µM: DMS 114 small cell lung | M14 melanoma
74.9 µM: LXFL 529 NSCLC
61.7 µM: HOP-92 NSCLC
97.2 µM: KM20L2 colon
60.8 µM: SK-MEL-2 melanoma
68.4 µM: U251 CNS | XF 498 CNS
49 µM: RPMI-8226 leukemia
95.7 µM: NCI-H226 lung
74.1 µM: COLO 205 colon
67.9 µM: NCI-H23 lung
60.3 µM: OVCAR-4 ovarian
52 µM: HL-60(TB) leukemia
26.5 µM: SK-MEL-5 melanoma
60.1 µM: EKVX NSCLC
93.2 µM: RXF 393 renal
92.3 µM: SNB-78 CNS
95.5 µM: M19-MEL melanoma
65.4 µM: SNB-75 CNS
84.8 µM: CAKI-1 renal
96.2 µM: SW-620 colon
35.7 µM: NCI-H460 lung
85.7 µM: MALME-3M melanoma
51.9 µM: NCI-H522 lung
